According to publication PMC2778948, “A Novel Enediynyl Peptide Inhibitor of Furin That Blocks Processing of proPDGF-A, B and proVEGF-C” (PLoS ONE, 2009):
“And” between values parts separate entries of the source, which are not always exact repeats. Equal entries are not always repeated. Where two headings read alike, the source gives them in different places.

Columns and labels:
[1] = target: T1, recombinant h (human) furin (Homo sapiens, UniProt P09958); assay: In vitro furin assay with Boc-RVRR-MCA (50 µM), aromatic enediyne compounds; type: biochemical; settings: for inhibition at 100 µM: read-out: Furin inhibition at a single concentration
T1 construct: pure soluble recombinant h (human) furin; purchased New England Biolabs
From the text: (§1) Most aromatic enediyne compounds are chemically highly reactive and can easily generate upon heating reactive bis-radical species via Bergman cyclo-aromatization reaction, [32]. It is a possibility that these reactive intermediates may then react with one or more of the catalytic amino acid residues His, Ser or Asp of PC-enzymes leading to chemical modifications of latter. This notion is supported by several studies involving interactions of amino acids either free or within protein sequences [41]–[46]. Based on this rationale we proposed that such types of molecules may therefore inhibit the protease activities of these enzymes. To test this hypothesis, we first synthesized several aromatic enediyne derivatives and examined in vitro their effects on proteolytic activities of three key members of PC-family enzymes namely furin, PC5 and PC7. In vitro enzyme assay of PCs against Boc-RVRR-MCA substrate (50 µM), in the absence and presence of various synthetic aromatic enediyne compounds (Fig. 1) indicated weak to modest inhibitory activities of these compounds. […] This is the first report of PC-inhibitory activity of an enediyne compound. This finding prompted us to the idea of incorporating an enediyne function within a peptide sequence which may enhance the potency and selectivity of furin inhibition. To accomplish this, we designed and synthesized an enediynyl amino acid (Eda) derivative with its amino terminal protected by Fmoc (9H-fluoren-9-ylmethoxy carbonyl) group so that it can be directly used in solid phase peptide synthesis.
Figure 1 List of synthetic aromatic enediyne derivatives and their effects on protease activities of Proprotein Convertases Furin, PC5 and PC7. […] The enzyme assay was carried out by using the fluorogenic peptide substrate Boc-RVRR-MCA (50 µM final concentration) as described in [27]. ND = not determined. TEXT PRINTED IN THE PICTURE: AB-1: MW 438; Furin: 29.9 ± 1.5; PC5: 33% (57 mM); PC7: 30.4 ± 3.5 | AB-2: MW 390; Furin: 10.5 ± 1.8; PC5: 34.5 ± 5.8; PC7: 8.5 ± 1.8 | AB-3: MW 506; Furin: 14.2 ± 1.8; PC5: 17.2± 3.4 | AB-4: MW 258; Furin: 10% at 100 μM | AB-5: MW 259; Furin: 12% at 100 μM | AB-6: MW 780; Furin: 192 ± 6.7 | AB-6-Ni: MW 838; Furin: 160 ± 2.5
While pure soluble recombinant h (human) furin was obtained commercially from New England Biolabs (Boston, Ma, USA), recombinant m (mouse) PC5 and soluble hPC7 were obtained in partially purified form as described earlier.

[2] = target: T2, soluble hPC7 (Homo sapiens, UniProt Q16549); assay: In vitro PC7 assay with Boc-RVRR-MCA (50 µM), aromatic enediyne compounds; type: biochemical
T2 construct: soluble hPC7 were obtained in partially purified form; made in house
T2 sequence (Q16549 142-667 limits assumed): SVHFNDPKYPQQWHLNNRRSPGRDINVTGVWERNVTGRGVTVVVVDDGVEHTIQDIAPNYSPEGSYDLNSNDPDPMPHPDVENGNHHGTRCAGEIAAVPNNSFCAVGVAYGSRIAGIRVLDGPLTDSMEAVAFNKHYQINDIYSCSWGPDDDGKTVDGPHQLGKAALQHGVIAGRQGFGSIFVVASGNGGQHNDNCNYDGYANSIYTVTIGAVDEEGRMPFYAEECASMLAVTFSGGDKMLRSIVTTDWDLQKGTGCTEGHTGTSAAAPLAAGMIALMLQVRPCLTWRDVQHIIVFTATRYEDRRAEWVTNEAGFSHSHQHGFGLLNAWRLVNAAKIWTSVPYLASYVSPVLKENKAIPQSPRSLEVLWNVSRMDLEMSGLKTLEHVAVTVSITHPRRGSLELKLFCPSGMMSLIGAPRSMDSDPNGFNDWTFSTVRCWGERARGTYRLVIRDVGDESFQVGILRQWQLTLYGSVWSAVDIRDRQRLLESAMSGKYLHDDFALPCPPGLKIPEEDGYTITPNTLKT
From the text: as §1, with “This finding prompted us to the idea of incorporating an enediyne function within a peptide sequence which may enhance the potency and selectivity of furin inhibition. To accomplish this, we designed and synthesized an enediynyl amino acid (Eda) derivative with its amino terminal protected by Fmoc (9H-fluoren-9-ylmethoxy carbonyl) group so that it can be directly used in solid phase peptide synthesis.” left out
(§2) Figure 1 List of synthetic aromatic enediyne derivatives and their effects on protease activities of Proprotein Convertases Furin, PC5 and PC7. […] ND = not determined. […]

[3] = target: T3, recombinant m (mouse) PC5 (Mus musculus, UniProt Q04592); assay: In vitro PC5 assay with Boc-RVRR-MCA (50 µM), aromatic enediyne compounds; type: biochemical
T3 construct: made in house
From the text: as §1, with “This finding prompted us to the idea of incorporating an enediyne function within a peptide sequence which may enhance the potency and selectivity of furin inhibition. To accomplish this, we designed and synthesized an enediynyl amino acid (Eda) derivative with its amino terminal protected by Fmoc (9H-fluoren-9-ylmethoxy carbonyl) group so that it can be directly used in solid phase peptide synthesis.” left out
as §2

[4] = test system: furin processing of proPDGF-A in CHO cells; assay: Processing of FLAG-tagged proPDGF-A in CHO cells (western blot); type: cell-based; settings: 24 h, FLAG antibody western blot
From the text: (§3) The result was compared in parallel with the commercial furin inhibitor Dec (decanoyl)-RVRR-cmk (chloromethyl ketone) and the 83-mer synthetic full length prodomain protein of hfurin [49]. […] This was reflected by the strong appearance of 22 kDa proPDGF-A band which was completely absent in the control experiment done in parallel without the presence of any inhibitor. […] The effect was compared in parallel with that done with the known furin inhibitor dec-RVRR-cmk.
CHO-cells expressing FLAG-tagged PDGF-A were grown in DMEM medium as described (43) until the cells achieved ∼80% confluency (24 h), At this stage the medium was removed, cells were washed and grown in fresh buffer supplemented with furin-Eda peptide (50 µM final concentration). The media and cells were harvested after another 24 h cell growth. The collected media were concentrated ∼20-fold using centricon filtration system (Amersham Biosciences Inc, cut off MW = 3 kDa) and subjected to western blot analysis using FLAG antibody for the presence of full length proPDGF-A and its C-terminal mature form obtained following cleavage by endogenous furin present in CHO cells. […] For quantitative purpose, each sample was also analyzed for the presence of actin by immunoblot using a specific antibody.

[5] = test system: furin-mediated processing of pro-PDGF-B in CHO cells; assay: Processing of proPDGF-B in CHO cells (western blot); type: cell-based; settings: for Block of processing of 31 kDa pro-PDGF-B to 17 kDa mature form: 0.5 to 15 µM
Protocol: CHO-cells expressing endogenous proPDGF-B [58] were grown as described above in the absence and presence of various concentrations ranging from 0.5 to 15 µM of either furin-Eda peptide or α1-Pdx, a known furin inhibitor [50]. Western blots were performed for the presence of proPDGF-B and its processed form using PDGF-B specific antibody. In parallel samples were also analyzed for actin levels.

[6] = test system: furin-mediated processing of proVEGF-C in CHO cells; assay: Processing of proVEGF-C in CHO cells (western blot); type: cell-based; settings: 50 µM
From the text: as §3
CHO-cells expressing FLAG-labeled proVEGF-C [57] were grown in DMEM medium as described above in the absence and presence of furin-Eda peptide and the furin inhibitor Dec-RVRR-cmk (each 50 µM concentration). The presence of VEGF-C precursor and its C-terminal processed form generated by furin cleavage were assessed by western blot analysis using FLAG antibody while the level of actin (control house keeping protein) was analyzed by immunoblot for quantitation purpose.

T3 sequence (Q04592 117-1877): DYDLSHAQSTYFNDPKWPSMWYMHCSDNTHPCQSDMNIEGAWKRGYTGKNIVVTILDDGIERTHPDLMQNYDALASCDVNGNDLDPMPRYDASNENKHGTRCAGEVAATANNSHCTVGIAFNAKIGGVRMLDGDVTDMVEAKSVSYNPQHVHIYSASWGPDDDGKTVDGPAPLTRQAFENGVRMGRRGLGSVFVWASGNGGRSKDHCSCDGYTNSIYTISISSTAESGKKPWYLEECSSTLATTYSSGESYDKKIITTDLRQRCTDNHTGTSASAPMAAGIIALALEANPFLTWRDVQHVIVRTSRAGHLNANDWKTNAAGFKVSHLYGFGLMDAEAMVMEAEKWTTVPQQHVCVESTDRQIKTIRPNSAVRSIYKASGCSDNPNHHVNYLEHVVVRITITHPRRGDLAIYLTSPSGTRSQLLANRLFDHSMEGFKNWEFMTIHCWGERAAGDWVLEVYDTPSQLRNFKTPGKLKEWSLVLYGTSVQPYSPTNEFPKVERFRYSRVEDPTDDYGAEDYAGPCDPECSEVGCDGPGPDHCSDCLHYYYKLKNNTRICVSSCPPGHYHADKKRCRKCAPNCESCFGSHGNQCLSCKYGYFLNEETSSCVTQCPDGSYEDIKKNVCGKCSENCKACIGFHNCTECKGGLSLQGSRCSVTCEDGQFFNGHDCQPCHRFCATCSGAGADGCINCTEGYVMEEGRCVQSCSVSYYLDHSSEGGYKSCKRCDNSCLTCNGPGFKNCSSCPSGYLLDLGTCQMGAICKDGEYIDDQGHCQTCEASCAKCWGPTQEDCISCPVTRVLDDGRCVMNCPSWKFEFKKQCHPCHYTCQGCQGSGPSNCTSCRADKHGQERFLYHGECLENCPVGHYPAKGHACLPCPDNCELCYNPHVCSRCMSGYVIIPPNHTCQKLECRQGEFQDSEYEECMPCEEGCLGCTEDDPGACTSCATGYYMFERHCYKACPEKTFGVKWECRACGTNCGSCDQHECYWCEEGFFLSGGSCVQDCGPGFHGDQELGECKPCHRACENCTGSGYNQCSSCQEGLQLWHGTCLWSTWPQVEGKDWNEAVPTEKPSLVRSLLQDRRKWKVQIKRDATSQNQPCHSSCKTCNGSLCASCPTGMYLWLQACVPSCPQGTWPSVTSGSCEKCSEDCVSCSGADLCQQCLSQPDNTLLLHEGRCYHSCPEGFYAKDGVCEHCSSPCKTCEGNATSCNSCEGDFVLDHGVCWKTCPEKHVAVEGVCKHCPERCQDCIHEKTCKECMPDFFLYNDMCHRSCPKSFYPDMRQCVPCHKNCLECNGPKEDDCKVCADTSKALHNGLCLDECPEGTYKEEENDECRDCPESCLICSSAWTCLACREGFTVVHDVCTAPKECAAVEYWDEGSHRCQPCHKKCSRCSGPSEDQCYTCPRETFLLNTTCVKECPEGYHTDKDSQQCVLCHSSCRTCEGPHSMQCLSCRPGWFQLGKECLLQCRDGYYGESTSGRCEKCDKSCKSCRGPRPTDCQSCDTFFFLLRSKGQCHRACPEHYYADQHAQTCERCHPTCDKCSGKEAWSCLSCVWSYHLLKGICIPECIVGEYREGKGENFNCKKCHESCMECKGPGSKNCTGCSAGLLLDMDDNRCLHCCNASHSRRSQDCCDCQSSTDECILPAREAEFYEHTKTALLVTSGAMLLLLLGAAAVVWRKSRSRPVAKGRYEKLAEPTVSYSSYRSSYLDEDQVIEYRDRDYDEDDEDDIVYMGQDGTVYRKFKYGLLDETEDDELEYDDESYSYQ
T1 sequence (P09958 108-715 limits assumed): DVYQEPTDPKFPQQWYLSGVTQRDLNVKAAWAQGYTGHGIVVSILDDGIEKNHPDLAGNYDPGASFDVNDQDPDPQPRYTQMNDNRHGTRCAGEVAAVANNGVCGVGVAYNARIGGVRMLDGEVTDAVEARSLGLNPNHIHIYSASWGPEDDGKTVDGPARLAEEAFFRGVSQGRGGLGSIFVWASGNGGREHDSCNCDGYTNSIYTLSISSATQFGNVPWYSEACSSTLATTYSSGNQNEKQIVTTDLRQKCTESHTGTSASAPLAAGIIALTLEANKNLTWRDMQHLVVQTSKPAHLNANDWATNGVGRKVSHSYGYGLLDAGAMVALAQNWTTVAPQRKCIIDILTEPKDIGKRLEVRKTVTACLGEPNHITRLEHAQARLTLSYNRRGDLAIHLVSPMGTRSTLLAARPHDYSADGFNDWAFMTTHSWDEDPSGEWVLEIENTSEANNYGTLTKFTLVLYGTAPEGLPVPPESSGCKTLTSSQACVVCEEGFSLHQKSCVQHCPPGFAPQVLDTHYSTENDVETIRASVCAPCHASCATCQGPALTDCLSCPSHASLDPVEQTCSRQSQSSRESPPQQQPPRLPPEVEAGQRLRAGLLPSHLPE

How did the IC50 [1] turn out when `C1#Cc2ccccc2C#CCN(Cc2ccccc2)CCN(Cc2ccccc2)C1` [AB-2] was run?
Its IC50 is 10.5 µM.

And the IC50 [2]?
Its IC50 is 8.5 µM.

What about the IC50 ([3]; IC50 for inhibition of PC5, Boc-RVRR-MCA 50 µM final concentration) of the same compound?
The IC50 was 34 µM and 34.5 µM.

Which results are given for `Cc1ccc(S(=O)(=O)N2CC#Cc3ccccc3C#CCN(S(=O)(=O)c3ccc(C)cc3)c3cccc2c3)cc1` [AB-3]?
IC50 ([1]; read-out: IC50 for inhibition of furin, Boc-RVRR-MCA 50 µM final concentration): 14.2 ± 1.8 µM; Effect on PC7 protease activity ([2]; Boc-RVRR-MCA 50 µM): minor protease activating effect; IC50 ([3]; read-out: IC50 for inhibition of PC5, Boc-RVRR-MCA 50 µM final concentration): 17.2 ± 3.4 µM

For `C1#Cc2ccccc2C#CCNc2cccc(c2)NC1` [AB-4], which inhibition at 100 µM [1] is on record?
Its inhibition at 100 µM is 10%.

For `C1#Cc2ccccc2C#CCNc2cccc(n2)NC1` [AB-5], which inhibition at 100 µM [1] is on record?
Its inhibition at 100 µM is 12%.

Which IC50 [1] does the source give for `C1#Cc2ccccc2C#CCN(Cc2ccccc2)CCN(Cc2ccccc2)CC#Cc2ccccc2C#CCN(Cc2ccccc2)CCN(Cc2ccccc2)C1` [AB-6] here?
The IC50 was 192 ± 6.7 µM.

Which “Block of cleavage of 22 kDa pro-PDGF-A to 14 kDa mature PDGF-A” value ([4]; 50 µM) does the source give for `CC(C)[C@H](NC(=O)[C@H](CCC(N)=O)NC(=O)[C@@H](N)CCC(N)=O)C(=O)N[C@@H](C)C(=O)N[C@@H](CCCCN)C(=O)N[C@@H](CCCNC(=N)N)C(=O)N[C@@H](CCCNC(=N)N)C(=O)N[C@H](C(=O)N[C@@H](CCCCN)C(=O)N[C@@H](CCCNC(=N)N)C(=O)NCCC#Cc1ccccc1C#CCCC(=O)N[C@@H](CC(=O)O)C(=O)N[C@H](C(=O)N[C@@H](Cc1ccc(O)cc1)C(=O)N[C@@H](CCC(N)=O)C(=O)N[C@@H](CCC(=O)O)C(N)=O)C(C)C)[C@@H](C)O` [furin-Eda-peptide (II)] here?
The value was “block efficiently”.

And the “Effect on formation of 22 kDa intermediate form of PDGF-B” value [5]?
The value was “neither inhibitors displayed any effect”.

And the “Block of processing of 31 kDa pro-PDGF-B to 17 kDa mature form” value [5]?
The value was “block furin-mediated processing”.

What about the “Block of cleavage of 50 kDa proVEGF-C to 28 kDa mature VEGF-C” value [6] of the same compound?
Its value is “block significantly”.

How did the “Block of cleavage of 22 kDa pro-PDGF-A to 14 kDa mature PDGF-A” value ([4]; 10 and 50 µM) turn out when “Dec (decanoyl)-RVRR-cmk (chloromethyl ketone) [Dec-RVRR-cmk, reference compound]” was run?
Its value is “block efficiently”.

What about the “Block of cleavage of 50 kDa proVEGF-C to 28 kDa mature VEGF-C” value [6] of the same compound?
The value was “block significantly”.

How did the “Effect on formation of 22 kDa intermediate form of PDGF-B” value [5] turn out when “α1-Pdx: bioengineered protein, known potent inhibitor of furin” was run?
The value was “neither inhibitors displayed any effect”.

And the “Block of processing of 31 kDa pro-PDGF-B to 17 kDa mature form” value [5]?
The value was “highly comparable”.
